The target in the assay is T1, ABCC10 (MRP7) (Homo sapiens, UniProt Q5T3U5).
T1 sequence (Q5T3U5 1-1492): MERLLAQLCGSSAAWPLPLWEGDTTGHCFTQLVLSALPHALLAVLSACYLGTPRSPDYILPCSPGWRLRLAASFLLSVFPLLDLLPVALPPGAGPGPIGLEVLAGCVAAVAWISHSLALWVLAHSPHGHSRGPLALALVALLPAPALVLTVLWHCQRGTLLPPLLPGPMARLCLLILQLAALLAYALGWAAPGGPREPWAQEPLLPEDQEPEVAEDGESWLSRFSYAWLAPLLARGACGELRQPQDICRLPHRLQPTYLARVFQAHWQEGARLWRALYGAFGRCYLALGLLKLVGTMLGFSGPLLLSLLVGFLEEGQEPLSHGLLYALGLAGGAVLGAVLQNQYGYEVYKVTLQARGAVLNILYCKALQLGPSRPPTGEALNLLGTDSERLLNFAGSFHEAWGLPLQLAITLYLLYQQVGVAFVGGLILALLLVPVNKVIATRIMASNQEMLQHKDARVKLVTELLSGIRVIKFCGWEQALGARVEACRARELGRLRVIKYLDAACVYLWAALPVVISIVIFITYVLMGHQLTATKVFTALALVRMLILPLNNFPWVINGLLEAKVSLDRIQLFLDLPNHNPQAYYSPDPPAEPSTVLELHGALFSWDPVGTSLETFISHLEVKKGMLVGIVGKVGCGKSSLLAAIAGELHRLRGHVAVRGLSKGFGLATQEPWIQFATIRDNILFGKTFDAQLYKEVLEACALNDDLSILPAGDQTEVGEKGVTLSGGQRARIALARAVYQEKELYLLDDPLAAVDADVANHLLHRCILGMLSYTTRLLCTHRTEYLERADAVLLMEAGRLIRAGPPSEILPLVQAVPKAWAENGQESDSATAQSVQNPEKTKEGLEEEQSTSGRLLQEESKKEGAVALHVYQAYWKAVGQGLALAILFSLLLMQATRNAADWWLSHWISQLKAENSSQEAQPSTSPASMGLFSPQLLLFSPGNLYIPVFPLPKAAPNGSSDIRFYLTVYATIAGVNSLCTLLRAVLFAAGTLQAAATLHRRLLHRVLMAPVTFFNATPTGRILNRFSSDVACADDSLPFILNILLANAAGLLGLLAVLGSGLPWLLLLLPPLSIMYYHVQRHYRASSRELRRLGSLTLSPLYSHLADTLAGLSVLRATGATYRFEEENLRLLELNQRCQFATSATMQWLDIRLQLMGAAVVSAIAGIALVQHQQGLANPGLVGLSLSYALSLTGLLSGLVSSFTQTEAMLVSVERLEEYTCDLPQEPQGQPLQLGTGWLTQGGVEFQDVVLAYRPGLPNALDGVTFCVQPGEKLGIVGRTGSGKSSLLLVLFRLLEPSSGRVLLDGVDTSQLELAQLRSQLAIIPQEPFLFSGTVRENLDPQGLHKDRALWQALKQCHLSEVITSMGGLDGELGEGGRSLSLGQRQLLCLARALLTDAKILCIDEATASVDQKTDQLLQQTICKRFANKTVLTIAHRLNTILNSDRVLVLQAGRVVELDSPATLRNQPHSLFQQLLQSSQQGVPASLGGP
Nature of the assay: [3H]-paclitaxel efflux, HEK293/ABCC10 vs HEK293/pcDNA3.[…] cells. In kind it is cell-based. The settings on record: labelled compound; 0.01 uM; 37 C; whole cells.

As for `CC(=O)O[C@H]1C(=O)[C@@]2(C)[C@H]([C@H](OC(=O)c3ccccc3)[C@]3(O)C[C@H](OC(=O)[C@H](O)[C@@H](NC(=O)c4ccccc4)c4ccccc4)C(C)=C1C3(C)C)[C@]1(OC(C)=O)CO[C@@H]1C[C@@H]2O` [[3H]-paclitaxel], the “[3H]-paclitaxel efflux, HEK293/ABCC10 vs HEK293/pcDNA3.1 cells” value is “due to active efflux of the [^3H]-paclitaxel via ABCC10”.

For the origin of these results see publication PMC3954439 (Molecular cancer therapeutics, 2014).
